Measurements: ChEMBL document CHEMBL1127279, “1,3-Oxazino[4,5-b]indole-2,4-(1H,9H)-diones and 5,6-dimethylpyrrolo-[2,3-d]-1,3-oxazin-2,4-(1H,7H)-diones as serine protease inhibitors” (Bioorg Med Chem Lett, 1994)

How the values were obtained:
Neutrophil elastase [1] = target: T1, Neutrophil elastase (Homo sapiens, UniProt P08246); test: In vitro inhibition of human leukocyte elastase.
T1 sequence (P08246 whole entry): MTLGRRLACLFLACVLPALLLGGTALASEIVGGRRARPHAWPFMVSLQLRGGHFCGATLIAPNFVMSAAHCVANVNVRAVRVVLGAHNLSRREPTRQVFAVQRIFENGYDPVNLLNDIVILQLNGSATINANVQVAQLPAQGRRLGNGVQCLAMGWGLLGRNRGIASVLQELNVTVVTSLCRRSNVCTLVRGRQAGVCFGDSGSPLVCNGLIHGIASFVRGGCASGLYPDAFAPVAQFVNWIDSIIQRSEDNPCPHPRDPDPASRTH

Pancreatic elastase = Pancreatic elastase (Sus scrofa, UniProt P08419+P00772); test: Inhibitory activity against porcine pancreatic elastase using Suc-Ala-Ala-Ala-pNA (416 uM) as substrate; assay type: protein assay
Chymotrypsinogen A [2] = target: T2, Chymotrypsinogen A (Bos taurus, UniProt P00766); test: Inhibitory activity against chymotrypsin using Suc-Ala-Ala-Pro-Phe-pNA (416 uM) as substrate;No Inhibition; design: species or system Sus scrofa
Chymotrypsinogen A [3] = target: T2, Chymotrypsinogen A; test: Inhibitory activity against chymotrypsin using Suc-Ala-Ala-Pro-Phe-pNA (416 uM) as substrate; No Inhibition; design: species or system Sus scrofa
Neutrophil elastase [4] = target: T1, Neutrophil elastase; test: Inhibitory activity against human leukocyte elastase using MeO-Suc-Ala-Ala-Pro-Val-pNA (416 uM) as substrate;No Inhibition
Neutrophil elastase [5] = target: T1, Neutrophil elastase; test: Inhibitory activity against human leukocyte elastase using MeO-Suc-Ala-Ala-Pro-Val-pNA (416 uM) as substrate
Chymotrypsinogen A [6] = target: T2, Chymotrypsinogen A; test: Inhibitory activity against chymotrypsin using Suc-Ala-Ala-Pro-Phe-pNA (416 uM) as substrate; design: species or system Sus scrofa

Row | SMILES | IC50 (Neutrophil elastase [1]) | other results
1 | CCCn1c2ccc(OC)cc2c2c(=O)oc(=O)[nH]c21 | > 1000 µM | –
2 | CC(=O)Oc1ccc2c(c1)c1c(=O)oc(=O)[nH]c1n2C1CCCCC1 | 454 µM | –
3 | COCCn1c2ccc(OC(C)=O)cc2c2c(=O)oc(=O)[nH]c21 | > 1000 µM | IC50 (Chymotrypsinogen A [2]): Not Active
4 | COC(Cn1c(C)c(C)c2c(=O)oc(=O)[nH]c21)OC | – | IC50 (Chymotrypsinogen A [3]): Not Active; IC50 (Neutrophil elastase [4]): Not Active
5 | Cc1c(C)n(Cc2ccccn2)c2[nH]c(=O)oc(=O)c12 | – | IC50 (Neutrophil elastase [4]): Not Active
6 | COc1ccc2c(c1)c1c(=O)oc(=O)[nH]c1n2CCc1ccccc1 | – | IC50 (Neutrophil elastase [5]): > 1000 µM
7 | CCCCn1c(C)c(C)c2c(=O)oc(=O)[nH]c21 | > 1000 µM | –
8 | CCCn1c(C)c(C)c2c(=O)oc(=O)[nH]c21 | – | IC50 (Chymotrypsinogen A [3]): Not Active; IC50 (Neutrophil elastase [4]): Not Active
9 | COc1ccc2c(c1)c1c(=O)oc(=O)[nH]c1n2Cc1ccccc1 | > 1000 µM | –
10 | CC(=O)Oc1ccc2c(c1)c1c(=O)oc(=O)[nH]c1n2CCc1ccccc1 | 92 µM | IC50 (Pancreatic elastase): 833 µM
11 | Cc1c(C)n(CCCc2ccccc2)c2[nH]c(=O)oc(=O)c12 | – | IC50 (Neutrophil elastase [4]; read-out: IC50): 895 µM
12 | COc1ccc2c(c1)c1c(=O)oc(=O)[nH]c1n2CC(OC)OC | > 1000 µM | –
13 | COCCn1c2ccc(OC)cc2c2c(=O)oc(=O)[nH]c21 | > 1000 µM | IC50 (Chymotrypsinogen A [3]): Not Active
14 | Cc1c(C)n(Cc2ccccc2)c2[nH]c(=O)oc(=O)c12 | – | IC50 (Neutrophil elastase [4]): Not Active
15 | CC(=O)Oc1ccc2c(c1)c1c(=O)oc(=O)[nH]c1n2Cc1ccccn1 | 292 µM | –
16 | Cc1c(C)n(CCc2ccccc2)c2[nH]c(=O)oc(=O)c12 | – | IC50 (Neutrophil elastase [4]): Not Active
17 | COc1ccc2c(c1)c1c(=O)oc(=O)[nH]c1n2Cc1ccccn1 | > 1000 µM | IC50 (Chymotrypsinogen A [6]): 512 µM
18 | COc1ccc2c(c1)c1c(=O)oc(=O)[nH]c1n2CCCc1ccccc1 | – | IC50 (Neutrophil elastase [5]): 989 µM
19 | CCCn1c2ccc(OC(C)=O)cc2c2c(=O)oc(=O)[nH]c21 | 665 µM | –
20 | CCCCn1c2ccc(OC)cc2c2c(=O)oc(=O)[nH]c21 | > 1000 µM | –
21 | COCCn1c(C)c(C)c2c(=O)oc(=O)[nH]c21 | – | IC50 (Chymotrypsinogen A [3]): Not Active; IC50 (Neutrophil elastase [4]): Not Active

The next lines start with results.

Row | IC50 (Neutrophil elastase [1]) | SMILES | other results
22 | 305 µM | CC(=O)Oc1ccc2c(c1)c1c(=O)oc(=O)[nH]c1n2CCCc1ccccc1 | IC50 (Pancreatic elastase): > 1000 µM
23 | 75 µM | CC(=O)Oc1ccc2c(c1)c1c(=O)oc(=O)[nH]c1n2Cc1ccccc1 | –
24 | 810 µM | CCCCn1c2ccc(OC(C)=O)cc2c2c(=O)oc(=O)[nH]c21 | IC50 (Pancreatic elastase): > 1000 µM
25 | 742 µM | COC(Cn1c2ccc(OC(C)=O)cc2c2c(=O)oc(=O)[nH]c21)OC | –
26 | > 1000 µM | Cc1c(C)n(C2CCCCC2)c2[nH]c(=O)oc(=O)c12 | –
27 | > 1000 µM | COc1ccc2c(c1)c1c(=O)oc(=O)[nH]c1n2C1CCCCC1 | –
